Peptide text beside a SMILES is read from it. * marks the point of attachment. NHBn = c1ccc(CN*)cc1

The target of the experiment is Mu-type opioid receptor (Homo sapiens, UniProt P35372). The experiment is described as follows: Binding affinity to human mu opioid receptor.
Chain of Mu-type opioid receptor (P35372 whole entry): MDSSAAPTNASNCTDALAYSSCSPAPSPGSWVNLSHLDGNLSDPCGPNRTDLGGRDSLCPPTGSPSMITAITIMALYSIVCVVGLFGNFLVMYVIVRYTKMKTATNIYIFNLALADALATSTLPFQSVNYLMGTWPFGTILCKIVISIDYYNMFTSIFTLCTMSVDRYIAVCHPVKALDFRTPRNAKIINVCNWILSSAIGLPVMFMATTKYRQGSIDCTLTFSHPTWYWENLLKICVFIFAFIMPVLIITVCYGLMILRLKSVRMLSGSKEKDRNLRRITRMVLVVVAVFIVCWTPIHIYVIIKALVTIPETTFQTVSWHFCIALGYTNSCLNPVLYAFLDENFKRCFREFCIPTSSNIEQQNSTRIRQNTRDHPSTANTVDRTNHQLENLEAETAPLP
For orientation: Ki means a measure of affinity in units of concentration, obtained from inhibition or displacement. The low end stands for tighter binding, the high end for weaker binding. Compound `CC(C)[C@@H](NC(=O)[C@H](Cc1c[nH]c2ccccc12)NC(=O)[C@@H]1CCCN1C(=O)[C@@H](N)Cc1ccc(O)cc1)C(=O)NCc1ccccc1` came in with a Ki of 2.32 nM.

In the case of `CC(C)[C@@H](NC(=O)[C@H](Cc1ccccc1)NC(=O)[C@@H]1CCCN1C(=O)[C@@H](N)Cc1ccc(O)cc1)C(=O)NCc1ccccc1`, the affinity, expressed as Ki, was 4.97 nM. `C[C@@H](NC(=O)[C@H](Cc1c[nH]c2ccccc12)NC(=O)[C@@H]1CCCN1C(=O)[C@@H](N)Cc1ccc(O)cc1)C(=O)NCc1ccccc1` displayed an inhibitory constant (Ki) of 4.56 nM. In turn, `C[C@@H](NC(=O)[C@H](Cc1ccccc1)NC(=O)[C@@H]1CCCN1C(=O)[C@@H](N)Cc1ccc(O)cc1)C(=O)NCc1ccccc1` gave a Ki of 8.67 nM.

Compound `C[C@H](NC(=O)[C@H](Cc1ccccc1)NC(=O)[C@@H]1CCCN1C(=O)[C@@H](N)Cc1ccc(O)cc1)C(=O)NCc1ccccc1` came in with a Ki of 122 nM. For `N[C@@H](Cc1ccc(O)cc1)C(=O)N1CCC[C@H]1C(=O)N[C@@H](Cc1c[nH]c2ccccc12)C(=O)NCC(=O)NCc1ccccc1` (H-YPWG-NHBn), the Ki is 56.2 nM.

For the origin of these results see ChEMBL document CHEMBL1155981, “Molecular modeling studies to predict the possible binding modes of endomorphin analogs in mu opioid receptor” (Bioorg Med Chem Lett, 2009).
